The structures appear in SMILES notation.

Assay [1] deals with T1, catalytic domain of the human GARFT (Homo sapiens, UniProt P22102).
T1 construct: catalytic domain of the human GARFT
T1 sequence (P22102 810-1010 limits assumed): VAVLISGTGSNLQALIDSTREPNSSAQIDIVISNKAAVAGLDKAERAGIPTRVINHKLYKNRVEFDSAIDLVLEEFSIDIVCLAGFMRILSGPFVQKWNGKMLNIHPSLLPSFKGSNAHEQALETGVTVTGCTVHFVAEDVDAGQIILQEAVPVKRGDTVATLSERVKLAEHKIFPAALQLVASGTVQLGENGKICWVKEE
Kind of assay: GAR transformylase (GARFT) inhibition constant determination. It counts as biochemical. The conditions noted are these: 20° C., pH 7.5, competitive with respect to FDDF.

The subject of another assay is CCRF-CEM. Kind of assay: In vitro growth inhibition (MTT), CCRF-CEM. It counts as cell-based. The conditions noted are these: Homo sapiens, title: continuous (72-hour) exposure, incubation 5 days, mean IC50, read-out: IC50 Cell Culture CCRF-CEM.
The test system of a further assay is L1210. Kind of assay: In vitro growth inhibition (MTT), L1210. Type of assay: cell-based. The conditions noted are these: Mus musculus, continuous (72-hour) exposure, mean IC50, read-out: IC50 Cell Culture L1210.
Assay [2] has as its target T2, human folate-binding protein (FBP) (Homo sapiens, UniProt P15328).
T2 construct: membrane associated FBP prepared from cultured KB cells; endogenous in cells; host or cells: KB cells (membrane fraction)
Description: FBP competitive binding assay (3H-folic acid, KB cell membranes). The following applies: for Kd: 25° C., pH 7.4, 3H-folic acid competition. On the procedure: Determination of Dissociation Constants for Human Folate Binding Protein:
The dissociation constant (Kd) for human folate-binding protein (FBP) was determined in a competitive binding assay using membrane associated FBP prepared from cultured KB cells.
Preparation of KB cell Membrane Fraction:
Adherent KB cells were scraped from flasks, washed once in ice-cold PBS, and centrifuged at 5000×g for 5 minutes at 4° C. Pelleted cells (2×10^8 cells) were resuspended in 10 ml of suspension buffer (KH2 PO4 -KOH pH 7.4:10 mM EDTA:10 mM 2-mercaptoethanol),sonicated briefly to complete cell lysis and centrifuged at 12000×g for 10 minutes at 4° C. The pellet was stripped of endogenous bound folate by resuspension in 20 ml of acidic buffer (50 mM KH2 PO4 -KOH pH 3.5:10 mM EDTA:10 mM 2-mercaptoethanol) and centrifuged as before. The pellet was then resuspended in 20 ml of the suspension buffer at pH 7.4 and centrifuged as before. The pellet was resuspended in 5 ml of suspension buffer at pH 7.4 lacking EDTA. Protein content was quantitated using the Bradford method with BSA as standard. Typical yields for this procedure were 4-5 mg total membrane protein per 2×10^8 cells. This final suspension was used as a source of membrane-associated human FBP.
FBP Competitive Binding Assay:
Inhibitor was allowed to compete against ^3 H-folic acid for binding to FBP. Reactions mixtures contained […] of cell membrane protein containing 3-6 pmoles (3-6 nM) of FBP, 17.25 pmoles ^3 H-folic acid (17.25 nM, 0.5 μCi), various concentrations of competitor, in 1 ml of 50 mM KH2 PO4 -KOH pH 7.4:10 mM 2-mercaptoethanol. Reactions were performed at 25° C. Because of the very slow release of bound ^3 H-folic acid, the competitor was prebound for 30 minutes in the absence of ^3 H-folic acid. ^3 H-Folic acid was then added and the mixtures were allowed to equilibrate for 2.5 hours. […] The amount of bound ^3 H-folic acid was measured by scintillation counting of the nitrocellulose membrane. […]

For another assay, the system named is mFBP. The conditions noted are these: cited from earlier work.
Assay [3] relates to reduced folate transport system and the mFBP. The conditions noted are these: CCRF-CEM and MA104 cell lines for DDATHF (Pizzorno et al.); cited from earlier work.
The conditions of assay [4]: reported in literature (Muggia); cited from earlier work.

T2 sequence (P15328 25-257): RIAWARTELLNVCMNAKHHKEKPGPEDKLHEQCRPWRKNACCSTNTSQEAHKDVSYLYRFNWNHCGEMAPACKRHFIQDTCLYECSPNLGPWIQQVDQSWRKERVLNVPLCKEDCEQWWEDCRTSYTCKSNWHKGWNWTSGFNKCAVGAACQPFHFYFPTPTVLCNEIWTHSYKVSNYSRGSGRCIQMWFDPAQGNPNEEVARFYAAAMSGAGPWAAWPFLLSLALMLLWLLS
Description for CCRF-CEM: (§1) All cultures were maintained at 37° C., 5% air-CO2 in a humidified incubator.
In vitro growth inhibition:
(§2) Stock solutions of the inhibitors were prepared in 10 mM sodium bicarbonate in water and stored in 1 ml aliquots at -20° C. for cell culture experiments. Cell-growth inhibition was measured by a modification of the method of Mosmann, J. Immunol.
(§3) Column 1 was filled with the same volume, 135 ml, of fresh medium, without cells, for use as a blank. The plates were then placed in a 37° C., 5% air-CO2 incubator. After 1 to 4 hours, plates were removed from the incubator followed by addition of the test compound at 10×final concentration, 15 ml/well in binary dilutions, to columns 12 to 4. […] Wells containing each concentration of test compound were prepared in quadruplicate on each plate. Fifteen milliliters of media, without test compound, were added to the wells in column 1 of the plates. The cells were then returned to the incubator and remained undisturbed for the full incubation period. On day 3 for L1210 and L1210/CI920 cells or day 5 for CCRF-CEM cells, 50 ml of 0.8 mg/ml MTT (4,5-dimethylthiazol-2-yl)-2,5-diphenyl tetrazolium bromide; Sigma catalog no. […] The concentration of drug required to reduce cell growth by 50% as measured by MTT metabolism was determined by interpolation between the O.D. (minus blank) immediately above and below 50% of control O.D. (minus blank).
Description for L1210: as §1
In vitro growth inhibition:
as §2, §3

`Cc1cc(C(=O)N[C@@H](CCC(=O)O)C(=O)O)sc1CCC1CNc2nc(N)[nH]c(=O)c2C1` (stereo partly drawn) [Compound 1, N-(5-[2-(2-amino-4(3H)-oxo-5,6,7,8-tetrahydropyrido[2,3-d]pyrimidin 6-yl)ethyl]-4-methylthieno-2-yl)-L-glutamic acid]: the affinity in assay [1], expressed as Ki, was 1.4 nM. The values for the IC50 with CCRF-CEM and in the assay on L1210 were 6.1 nM and 13.5 nM, respectively. Besides, the dissociation constant Kd (usually a measure of binding affinity in units of concentration) in assay [2] is 28 nM. Further, the “relative folate binding protein Kd, times less potent than 6R-DDATHF” value in assay [2] (relative to 6R-DDATHF) is recorded as “about 1400 times”.
As to `Nc1nc2c(c(=O)[nH]1)CC(CCc1ccc(C(=O)N[C@@H](CCC(=O)O)C(=O)O)cc1)CN2` (stereo partly drawn) [DDATHF, 5,10-dideazatetrahydrofolic acid], in the assay on mFBP, the “affinity for the mFBP” value is “high affinity for the mFBP”. The IC50 (usually the concentration that gives 50% inhibition) with CCRF-CEM is 1.5 nM; with L1210, 17.5 nM. The transport into cells result in assay [3] was “transported into cells via both the reduced folate transport system and the mFBP”. The compound also showed an equilibrium dissociation constant (Kd) in assay [2] of 0.02 nM. In addition, the antitumor activity result in assay [4] was “reported to show antitumor activity”.
`CN(Cc1cnc2nc(N)nc(N)c2n1)c1ccc(C(=O)N[C@@H](CCC(=O)O)C(=O)O)cc1` [Methotrexate]: in assay [3], the transport into cells entry is reported as “transported via the reduced folate transport system”.

(Values after patent publication US5646141A, “Compounds useful as antiproliferative agents and GARFT inhibitors” (Agouron Pharmaceuticals, Inc., priority 1995, dated 1997).)
